Measurements published in ChEMBL document CHEMBL1150650, “Bioactive constituents from Iryanthera megistophylla” (2002).
≈ marks a conversion by molar mass, not a printed value. Calls of active or inactive are those of the source. No cut-off for these calls is given here.

Legend:
Potato virus X = assay: Antiviral activity against Potato virus X in half leaf of Chenopodium quinoa at 9.3 mg/mL after 10 days; format: functional; settings: 240 h
Candida albicans [1] = assay: Antimicrobial activity against Candida albicans at 300 ug/mL after 24 hrs by disk diffusion method; format: functional, organism-based
[2] = biological target: Acetylcholinesterase (Homo sapiens) (UniProt P22303); assay: Inhibition of acetylcholinesterase-mediated hydrolysis of acetylcholine at 0.8 mg/mL relative to galanthamine
Sequence of Acetylcholinesterase (Homo sapiens) (P22303 whole entry): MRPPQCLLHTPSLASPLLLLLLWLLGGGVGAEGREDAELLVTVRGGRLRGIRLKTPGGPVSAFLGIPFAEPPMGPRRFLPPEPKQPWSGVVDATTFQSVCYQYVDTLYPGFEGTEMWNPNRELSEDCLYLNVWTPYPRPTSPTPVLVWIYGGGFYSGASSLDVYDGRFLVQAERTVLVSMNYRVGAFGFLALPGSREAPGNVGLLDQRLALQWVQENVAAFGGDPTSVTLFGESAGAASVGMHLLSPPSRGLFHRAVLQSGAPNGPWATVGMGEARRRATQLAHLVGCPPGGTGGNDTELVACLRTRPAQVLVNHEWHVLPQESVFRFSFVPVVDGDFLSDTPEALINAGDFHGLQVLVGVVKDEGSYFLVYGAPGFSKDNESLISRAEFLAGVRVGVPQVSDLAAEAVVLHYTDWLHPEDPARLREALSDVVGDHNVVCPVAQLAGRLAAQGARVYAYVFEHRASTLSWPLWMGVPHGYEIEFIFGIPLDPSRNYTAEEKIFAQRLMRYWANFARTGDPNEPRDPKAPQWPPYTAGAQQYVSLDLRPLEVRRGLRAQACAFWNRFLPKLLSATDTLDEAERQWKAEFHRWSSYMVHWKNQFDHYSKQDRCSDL

Human alphaherpesvirus 1 = assay: Antiviral activity against HSV1 in african green monkey Vero cells at 320 ug/mL; format: functional, organism-based
Staphylococcus aureus [3] = assay: Antimicrobial activity against Staphylococcus aureus at 200 ug/mL after 24 hrs by disk diffusion method; format: functional, organism-based
Candida albicans [4] = assay: Antimicrobial activity against Candida albicans after 24 hrs by disk diffusion method; format: functional
Staphylococcus aureus [5] = assay: Antimicrobial activity against Staphylococcus aureus after 24 hrs by disk diffusion method; format: functional

`COc1ccc(-c2c(C)c(C)cc3ccc(O)cc23)cc1` was tested, and the inhibition at 9300 µg/mL (Potato virus X) was 36%, the MIC (Candida albicans [1]) was “inactive” and the inhibition [2] was 67.6%. For the same compound, the MIC (Human alphaherpesvirus 1) was “inactive” and the MIC (Staphylococcus aureus [3]) was “inactive”.

For `O=C1C[C@H](c2ccc(O)c(O)c2)c2c(cc(O)c3c2O[C@H](c2ccc(O)c(O)c2)[C@H](O)[C@H]3c2c(O)cc(O)c3c2O[C@H](c2ccc(O)c(O)c2)[C@H](O)C3)O1` [CINCHONAIN IIA], the inhibition at 9300 µg/mL (Potato virus X) was 100%, the MIC (Human alphaherpesvirus 1) was “inactive” and the MIC (Staphylococcus aureus [3]) was “inactive”. For the same compound, the MIC (Candida albicans [4]) was 150 µg/mL (≈ 203 µM).

In the case of `C[C@@H]1OC(=O)[C@@H](CCCCCCCCCCCCCCCCCc2ccccc2)[C@@H]1O` [GRANDINOLIDE], the inhibition at 9300 µg/mL (Potato virus X) is reported as 30%, the MIC (Candida albicans [1]) is reported as “inactive” and the MIC (Human alphaherpesvirus 1) is reported as “inactive”. For the same compound, the MIC (Staphylococcus aureus [3]) was “inactive”.

`COc1ccc(CCC(=O)c2c(OC)cc(O)c([C@@H](c3ccc(O)cc3)[C@@H](C)[C@H](C)Cc3ccc(O)cc3)c2O)cc1` [IRYANTHERIN K] was tested, and the MIC (Staphylococcus aureus [5]) was 50 µg/mL (≈ 87.6 µM), the inhibition at 9300 µg/mL (Potato virus X) was 89% and the MIC (Candida albicans [1]) was “inactive”. For the same compound, the inhibition [2] was 77.4%.

With `COc1ccc(CCC(=O)c2c(OC)cc(O)c([C@H](c3ccc(O)cc3)[C@@H](C)[C@H](C)Cc3ccc(O)cc3)c2O)cc1` [IRYANTHERIN L] the inhibition at 9300 µg/mL (Potato virus X) was 67%, the MIC (Candida albicans [1]) was “inactive” and the MIC (Human alphaherpesvirus 1) was “inactive”. For the same compound, the MIC (Staphylococcus aureus [3]) was “inactive”.

In the case of `CCCCCCCC/C=C\CCCCCCCCCCCCCCCC[C@H]1C(=O)O[C@H](C)[C@@H]1O` [MEGISLACTONE], the inhibition at 9300 µg/mL (Potato virus X) is reported as 20%, the MIC (Candida albicans [1]) is reported as “inactive” and the MIC (Human alphaherpesvirus 1) is reported as “inactive”. For the same compound, the MIC (Staphylococcus aureus [3]) was “inactive”.

Compound `Oc1cc(O)c2c(c1)O[C@H](c1ccc(O)c(O)c1)[C@H](O)[C@H]2c1c(O)cc(O)c2c1O[C@H](c1ccc(O)c(O)c1)[C@H](O)C2` [PROCYANIDIN B2] has an MIC (Staphylococcus aureus [5]) of 100 µg/mL (≈ 173 µM), an inhibition at 9300 µg/mL (Potato virus X) of 98% and an MIC (Candida albicans [4]) of 150 µg/mL (≈ 259 µM).

`O=c1c(O)c(-c2ccc(O)c(O)c2)oc2cc(O)cc(O)c12` [QUERCETIN] gave an inhibition at 9300 µg/mL (Potato virus X) of 100%.

Compound `NC(=O)c1ncn([C@@H]2O[C@H](CO)[C@@H](O)[C@H]2O)n1` [RIBAVIRIN] has an inhibition at 9300 µg/mL (Potato virus X) of 94%.
